Results reported in patent US7115629B2, “Carbamates derived from arylalkylamines” (Laboratorios S.A.L.V.A.T., S.A., priority 2000, dated 2006).

Experiments:
M2 and M3 receptors = settings: background statement; compounds exhibit M3 antagonist activity; cited from earlier work
human M3 receptors = biological target: T1, human M3 receptors (Homo sapiens, UniProt P20309); experiment: Binding test to cloned human M3 muscarinic receptor ([3H]-NMS displacement, CHO-K1 membranes); settings: membranes of CHO-K1 cells transfected with human M3; [3H]-NMS; mean of two independent experiments in duplicate; read-out: M3 (human M3 antagonist activity, binding affinity constant Ki)
T1 construct: purchased Receptor Biology; host or cells: CHO-K1 cells transfected with the human receptor (membranes)
T1 sequence (P20309 whole entry): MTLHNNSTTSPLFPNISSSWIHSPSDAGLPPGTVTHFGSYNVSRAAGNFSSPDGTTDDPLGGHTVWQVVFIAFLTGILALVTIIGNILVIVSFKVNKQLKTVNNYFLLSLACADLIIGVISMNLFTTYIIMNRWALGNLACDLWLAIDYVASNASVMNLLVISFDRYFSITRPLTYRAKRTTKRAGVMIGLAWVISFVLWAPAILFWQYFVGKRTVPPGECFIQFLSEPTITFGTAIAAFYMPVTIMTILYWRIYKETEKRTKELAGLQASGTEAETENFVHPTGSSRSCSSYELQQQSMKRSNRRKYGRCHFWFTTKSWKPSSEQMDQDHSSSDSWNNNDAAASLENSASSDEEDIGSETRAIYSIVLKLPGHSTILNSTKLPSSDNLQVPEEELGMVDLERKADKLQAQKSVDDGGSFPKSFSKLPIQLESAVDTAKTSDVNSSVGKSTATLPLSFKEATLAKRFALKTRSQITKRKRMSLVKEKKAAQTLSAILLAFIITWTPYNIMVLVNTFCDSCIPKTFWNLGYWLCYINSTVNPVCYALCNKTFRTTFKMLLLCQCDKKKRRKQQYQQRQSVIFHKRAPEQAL
Experimental: (§1) Membranes from CHO—K1 cells transfected with human M2 or M3 receptors (Receptor Biology) were used. The summarised experimental procedure for both receptors was the following: membranes (15–20 μg) were incubated with [^3H]-NMS (0.3–0.5 nM) for 60 min at 25° C., in presence or absence of the antagonists. Incubation was carried out in 96 wells polystyrene microplates in a total incubation volume of 0.2 mL of PBS pH 7.4. Non specific binding was determined in parallel assays in presence of atropine (5 μM). Samples were filtered through type GF/C glass fibre, preincubated with PEI 0.3%. Filters were washed 3–4 times with 50 mM Tris-HCl, 0.9% NaCl, pH 7.4 at 4° C., and dried at 50° C. for 45 min. Filter bound radioactivity was quantified by liquid scintillation counting.
(§2) For the calculation of the inhibition constant (Ki), displacement curves were analysed by non-linear regression (GraphPad Prism). Dissociation constant (KD) of [^3H]-NMS for each receptor was obtained through the saturation curves obtained in the same conditions as the experiments carried out with the antagonists.

human M2 receptors = biological target: T2, human M2 receptors (Homo sapiens, UniProt P08172); experiment: Binding test to cloned human M2 muscarinic receptor ([3H]-NMS displacement, CHO-K1 membranes), reported as M2/M3 ratio; settings: value greater than 1 indicates selectivity for the M3 receptor
T2 construct: purchased Receptor Biology; host or cells: CHO-K1 cells transfected with the human receptor (membranes)
T2 sequence (P08172 1-466): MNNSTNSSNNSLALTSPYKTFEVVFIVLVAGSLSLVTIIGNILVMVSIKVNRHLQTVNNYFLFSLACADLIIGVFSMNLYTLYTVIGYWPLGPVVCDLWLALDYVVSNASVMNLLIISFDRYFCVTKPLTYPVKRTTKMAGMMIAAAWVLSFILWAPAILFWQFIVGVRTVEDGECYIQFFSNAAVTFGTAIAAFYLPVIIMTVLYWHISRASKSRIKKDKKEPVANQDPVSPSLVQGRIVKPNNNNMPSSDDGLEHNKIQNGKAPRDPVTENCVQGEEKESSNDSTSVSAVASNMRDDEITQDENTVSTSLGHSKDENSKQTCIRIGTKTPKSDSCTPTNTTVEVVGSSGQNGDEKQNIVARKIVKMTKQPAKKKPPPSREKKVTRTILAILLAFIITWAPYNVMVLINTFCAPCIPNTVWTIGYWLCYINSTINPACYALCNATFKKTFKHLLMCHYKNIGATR
Experimental: as §1, §2

SMILES | affinity towards the M2 receptor (M2 and M3 receptors) | Ki (human M3 receptors) | M2/M3 (ratio between M2 and M3 receptor affinities) (human M2 receptors)
NC(=O)C(c1ccccc1)(c1ccccc1)[C@@H]1CCN(CCc2ccc3c(c2)CCO3)C1 [DARIFENACIN, darifenacin] | without any significant affinity | – | –
O=C(OC1CN2CCC1CC2)N(Cc1ccc(O)cc1)c1ccccc1 (centres unmarked) [Example 47] | – | 5.7 nM | 33
O=C(OC1CN2CCC1CC2)N(Cc1cccc(OCc2ccccc2)c1)c1cccc(Cl)c1 (centres unmarked) [Example 48] | – | 0.43 nM | 24
O=C(OC1CN2CCC1CC2)N(Cc1cccc(OC(F)(F)F)c1)c1ccccc1 (centres unmarked) [Example 49] | – | 10.1 nM | 7
CC(C)Oc1ccc(CN(C(=O)OC2CN3CCC2CC3)c2ccccc2)cc1 (centres unmarked) [Example 50] | – | 0.84 nM | 26
COc1cc(CN(C(=O)OC2CN3CCC2CC3)c2cccc(Cl)c2)ccc1OCc1ccccc1 (centres unmarked) [Example 51] | – | 51.9 nM | 3
O=C(OC1CN2CCC1CC2)N(Cc1ccc2c(c1)OCO2)c1ccccc1 (centres unmarked) [Example 52] | – | 1.2 nM | 25
Cc1cccc(N(Cc2ccc3c(c2)OCCO3)C(=O)OC2CN3CCC2CC3)c1 (centres unmarked) [Example 53] | – | 1.25 nM | 26
O=C(OC1CN2CCC1CC2)N(CC1CC1)c1ccccc1 (centres unmarked) [Example 54] | – | 0.6 nM | 32
O=C(OC1CN2CCC1CC2)N(CC1CCC1)c1ccccc1 (centres unmarked) [Example 55] | – | 0.35 nM | 110
Cc1cccc(N(CC2CCCC2)C(=O)OC2CN3CCC2CC3)c1 (centres unmarked) [Example 56] | – | 0.75 nM | 37
O=C(OC1CN2CCC1CC2)N(CC1CCCCC1)c1ccccc1F (centres unmarked) [Example 57] | – | 0.025 nM | 300
Cc1cccc(N(CC2CCC(C)CC2)C(=O)OC2CN3CCC2CC3)c1 (centres unmarked) [Example 58] | – | 0.088 nM | 93
C=C(C)C1CCC(CN(C(=O)OC2CN3CCC2CC3)c2cccc(C)c2)CC1 (centres unmarked) [Example 59] | – | 0.77 nM | 90
O=C(OC1CN2CCC1CC2)N(CC1=CCCCC1)c1ccccc1F (centres unmarked) [Example 60] | – | 0.02 nM | 48
O=C(OC1CN2CCC1CC2)N(CC1CC=CCC1)c1cccc(Cl)c1 (centres unmarked) [Example 61] | – | 0.35 nM | 74
O=C(OC1CN2CCC1CC2)N(CC1CC2CCC1C2)c1cccc(F)c1 (centres unmarked) [Example 62] | – | 0.22 nM | 115
O=C(OC1CN2CCC1CC2)N(CC1CC2C=CC1C2)c1ccccc1 (centres unmarked) [Example 63] | – | 0.06 nM | 64
C[N+]12CCC(CC1)C(OC(=O)N(Cc1ccc(F)cc1)c1ccccc1)C2.[I-] (centres unmarked) [Example 64] | – | 3.6 nM | 30
Cc1ccccc1N(Cc1ccccc1)C(=O)OC1C[N+]2(C)CCC1CC2.[I-] (centres unmarked) [Example 65] | – | 14.3 nM | 13
Cc1ccccc1N(Cc1cc(F)c(F)cc1F)C(=O)OC1C[N+]2(C)CCC1CC2.[I-] (centres unmarked) [Example 66] | – | 4.7 nM | 18
Cc1cccc(N(Cc2ccc(F)cc2)C(=O)OC2C[N+]3(C)CCC2CC3)c1.[I-] (centres unmarked) [Example 67] | – | 3.8 nM | 19
C[N+]12CCC(CC1)C(OC(=O)N(Cc1ccccc1)c1ccccc1F)C2.[I-] (centres unmarked) [Example 68] | – | 9.9 nM | 5
C[N+]12CCC(CC1)C(OC(=O)N(CC1CCCCC1)c1ccccc1F)C2.[I-] (centres unmarked) [Example 69] | – | 14.1 nM | 8
O=C(OC1CN2CCC1CC2)N1CCc2ccccc2[C@@H]1c1ccccc1 (some centres unmarked) [YM-905, reference compound] | without any significant affinity | 1.72 nM | 24
